Columns and labels:
zebrafish melanocytes = test: Chemical treatment of zebrafish, melanocytic brightness; assay type: in vivo; settings: 24 hours, 100 μM 2,3BD or 50 μM DCC
Method: Wildtype Tübingen zebrafish were placed in a 24 well plate at 72 hours post-fertilization, with 10 larvae per well for a total twenty larvae per condition. Larvae were treated for 24 hours with either 2,3BD (1 μM, 10 μM, 100 μM, 1 mM; Sigma Aldrich, #B85307), DCC (1 μM, 10 μM, 50 μM, 100 μM; Sigma Aldrich, #D80002), or DMSO (1:500) in E3 embryo medium. At 4 days post fertilization, larvae were imaged using a Nikon SMZ18 Stereomicroscope. Melanocytes from at least 5 zebrafish embryos of each group for each experiment were analyzed using the FIJI software enabling pixel-based color quantification.

NNT [1] = biological target: T1, NNT (Homo sapiens, UniProt Q13423); test: GSH/GSSG ratio (indirect endpoint of NNT enzyme activity) in primary melanocytes; assay type: cell-based; parameters: endogenous in cells; host or cells: primary human melanocytes (isolated from neonatal foreskins); settings: different doses, 24 hours
T1 sequence (Q13423 44-1086): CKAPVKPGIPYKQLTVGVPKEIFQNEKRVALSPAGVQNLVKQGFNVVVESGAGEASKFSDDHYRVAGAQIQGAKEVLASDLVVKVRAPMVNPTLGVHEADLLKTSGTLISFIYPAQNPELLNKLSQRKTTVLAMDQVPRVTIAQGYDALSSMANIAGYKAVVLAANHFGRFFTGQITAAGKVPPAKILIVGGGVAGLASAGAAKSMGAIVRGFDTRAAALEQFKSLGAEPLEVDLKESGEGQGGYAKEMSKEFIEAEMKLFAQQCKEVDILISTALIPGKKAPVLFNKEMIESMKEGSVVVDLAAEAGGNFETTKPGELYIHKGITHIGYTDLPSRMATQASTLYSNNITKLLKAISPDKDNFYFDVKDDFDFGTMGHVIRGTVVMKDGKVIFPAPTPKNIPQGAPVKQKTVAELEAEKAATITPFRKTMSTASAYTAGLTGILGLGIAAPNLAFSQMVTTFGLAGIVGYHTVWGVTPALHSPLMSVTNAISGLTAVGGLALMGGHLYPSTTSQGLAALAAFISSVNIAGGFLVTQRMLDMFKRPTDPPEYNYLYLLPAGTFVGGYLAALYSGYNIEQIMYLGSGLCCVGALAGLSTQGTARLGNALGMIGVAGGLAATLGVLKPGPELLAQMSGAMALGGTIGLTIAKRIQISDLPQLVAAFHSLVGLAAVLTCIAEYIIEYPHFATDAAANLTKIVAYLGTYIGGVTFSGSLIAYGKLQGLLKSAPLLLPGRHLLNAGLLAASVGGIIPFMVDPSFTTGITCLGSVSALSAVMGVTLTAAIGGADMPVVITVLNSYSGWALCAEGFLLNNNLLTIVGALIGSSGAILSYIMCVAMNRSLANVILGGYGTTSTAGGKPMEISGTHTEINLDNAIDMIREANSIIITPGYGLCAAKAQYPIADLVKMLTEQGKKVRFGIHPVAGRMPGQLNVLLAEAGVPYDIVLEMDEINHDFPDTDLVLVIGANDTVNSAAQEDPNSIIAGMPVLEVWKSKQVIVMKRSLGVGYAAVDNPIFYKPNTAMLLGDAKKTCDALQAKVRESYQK
Method: (§1) Glutathione measurements: Cell lysates were prepared from equal numbers of cells after 24 h of DCC or 2,3BD treatment, following the manufacturer's protocols. Seventy-two h post siRNA treatment or overexpression of NNT and their corresponding controls, glutathione levels were determined using the GSH/GSSG-Glo assay (Promega, #V6611) and luminescence was measured using an EnVision 2104 Multilabel Reader (PerkinElmer).

murine Melan-A cells = test: Melanin content of Melan-A cells with NNT inhibitors; assay type: cell-based, mouse; settings: 2 mM, FIG. 3A
Method: Murine Melan-A (Bennett et al., 1987) cells were obtained from the Wellcome Trust Functional Genomics Cell Bank. Melan-A cells were grown in RPMI 1640 supplemented with 10% FBS or FetalPlex (Gemini Bio-Products, #100-602), 100,000 U/L penicillin, 100 mg/L streptomycin sulphate, 100× Glutamax, and 200 nM TPA.
(§2) In vitro culture with NNT inhibitors: 2,3-Butanedione 97% (2,3 BD) (Sigma Aldrich, #B85307) (1 μM, 10 μM, 100 μM, 2 mM), N,N-Dicyclohexylcarbodiimide (DCC) (Sigma Aldrich, #D80002) (1 mM, 2 mM, 10 mM), and Palmitoyl coenzyme A lithium salt (Sigma Aldrich, #P9716) (10 μM, 2 mM) were reconstituted with DMSO (American Type Culture Collection, 4-X).
(§3) Melanin quantification: Equal numbers of cells were plated in 6-well plates. The cells were then harvested 72-96 hours post siRNA or NNT inhibitors compounds, as indicated in the legends, pelleted, washed in PBS and counted. 10^6 cells were used for measurement of protein concentration with the Pierce BCA protein assay (Thermo Fisher Scientific, #23225) and 10^6 cells were resuspended in 60 μl of 1 N NaOH solution and incubated at 60° C. for 2 h or until the melanin was completely dissolved. After cooling down to room temperature, samples were centrifuged at 500×g for 10 min and the supernatants were loaded onto a 96-well plate. The melanin content was determined by measuring the absorbance at 405 nm on an Envision plate reader, compared with a melanin standard (0 to 50 μg/ml; Sigma Aldrich, #M8631). Melanin content was expressed as micrograms per milligram of protein.

[2] = system: primary human melanocytes; test: Intracellular melanin content of primary human melanocytes with NNT inhibitors; assay type: cell-based; settings: 2.3 BD 2 mM for 72 hours, FIG. 10D
Text: Primary human melanocytes were isolated from normal discarded foreskins and were established in TIVA medium as described previously (Khaled et al., 2010) or in Medium 254 (Life Technologies, #M254500) (Allouche et al., 2015). Human melanoma cell line UACC257 (sex unspecified) was obtained from the National Cancer Institute (NCI), Frederick Cancer Division of Cancer Treatment and Diagnosis (DCTD) Tumor Cell Line Repository. SK-MEL-30 ([…]) human melanoma cell line was from Memorial Sloan Kettering Cancer Center. Both melanoma cell lines have been authenticated by our lab using ATCC's STR profiling service. UACC257 and SK-MEL-30 cells were cultured in DMEM and RPMI medium (Life Technologies, #11875119) respectively, supplemented with 10% fetal bovine serum and 1% penicillin/streptomycin/L-glutamine in a humidified atmosphere of 95% air and 5% CO2 at 37° C.
as §2, §3

[3] = system: UACC257 human melanoma cell line; test: Cell viability of UACC257 cells; assay type: cell-based; settings: different doses, FIG. 10E
Method: (§4) Cell viability assay: Human melanoma cell lines and isolated primary cultured human melanocytes were propagated and tested in early passage (Passages 7 to 9). The effects of NNT inhibitors (2,3BD, DCC, and Palmitoyl coenzyme A lithium salt) on cell viability were evaluated by the CellTiter-Glo Luminescent Cell Viability Assay (Promega, #G7570) and measurement of luminescence was performed on an EnVision 2104 Multilabel Reader (PerkinElmer). Human melanoma cell lines and primary melanocytes were plated on 96-well white plates (10,000 cells/well) and were treated with the NNT inhibitors at the indicated concentrations for 24 h.

NNT [4] = biological target: T1, NNT; test: GSH/GSSG ratio in UACC257 melanoma cells; assay type: cell-based; parameters: endogenous in cells; settings: different doses
Method: as §1

[5] = system: human melanocytes, dermal fibroblasts, and keratinocytes; test: Cell viability of human skin cells with NNT inhibitors; assay type: cell-based; settings: up to 10 μM, FIG. 10B
Method: Primary human keratinocytes were cultured in EpiLife® medium supplemented with human keratinocyte growth supplement (HKGS, ThermoFisher Scientific). Primary human fibroblasts were cultured in medium 106 supplemented with low serum growth supplement (LSGS, ThermoFisher Scientific). 10^6 and […] cells were plated per well of 6-well and 96-well plates, respectively. Drugs indicated in the figure legends were dissolved in DMSO and added 1:1000 to the culture media for 24 h at the concentrations indicated.
as §4

primary melanocytes = test: Cell viability of primary melanocytes, different doses; assay type: cell-based, human; settings: different doses, relative to vehicle, FIG. 10C
Method: as §4

SMILES: C(=NC1CCCCC1)=NC1CCCCC1 [DCC, N,N′-Dicyclohexylcarbodiimide]
- darkening of zebrafish embryos (melanocytic brightness) (zebrafish melanocytes): significant darkening
- GSH/GSSG ratio (NNT [1]): decreased GSH/GSSG ratios
- melanin content (murine Melan-A cells): increased melanin content
- intracellular melanin content [2]: significantly increased the melanin content
- cell viability [3]: no impact on cell viability
- GSH/GSSG ratio (NNT [4]): decreased GSH/GSSG ratios
- toxicity (viability) [5]: no significant toxicity
- cell viability (primary melanocytes): no impacts on cell viability

Source: US20240307283A1, “COMPOSITIONS AND METHODS FOR DECREASING PIGMENTATION” (The General Hospital Corporation, priority 2021, published 2024)
